Test results reported in patent US20120045523A1, “COMBINATION OF A TLR3 LIGAND AND A CHEMOTHERAPY AGENT WHICH ACTS ON THE INTRINSIC "APOPTOSIS" PATHWAY IN THE TREATMENT OF CANCER” (UNIVERSITE CLAUDE BERNARD LYON I, priority 2008, published 2012).
Like-named read-outs stand apart in the source and are kept apart here.

Experiments:
NCI-H1703 cells [1] = assay: Number of living cells (MTS, CellTiter 96 AQueous One) after chemotherapy and/or poly(I:C); format: cell-based, human; conditions: for IC50 / CI (combination index) / nature of interaction with poly(I:C), from CI / reduction of the number of living cells: NCI-H1703; for CI (combination index): agent in combination with poly(I:C), average CI; for nature of interaction with poly(I:C), from CI: combination with poly(I:C); for cytotoxicity at 4 µM: NCI-H1703, NCI-H1703, FIG. 1B, read-out: loss of viable cells; for reduction of the number of living cells: FIG. 1A
NCI-H292 cells [2] = assay: as above; conditions: for CI (combination index): agent in combination with poly(I:C), average CI; for nature of interaction with poly(I:C), from CI: combination with poly(I:C)
Method: NCI-H292 and NCI-H1703 are squamous cell lung cancer cell lines obtained from the American Type Culture Collection (ATCC). The cells are cultured in 100 mm-diameter dishes in complete RPMI 1640 medium with Glutabio (Eurobio Laboratories, Ulis, France) supplemented with 10% fetal calf serum (FCS) (Invitrogen, Cergy Pontoise, France) and containing 100 U/ml of penicillin (Invitrogen, Cergy Pontoise, France), 0.1 mg/ml of streptomycin (Invitrogen, Cergy Pontoise, France), 1 mM of sodium pyruvate (Invitrogen, Cergy Pontoise, France), 10 μM of HEPES (Jacques Boy Biotechnology Institute, Rheims, France). These cells are maintained at 37° C. in an atmosphere of 5% CO2.
Cells were inoculated in 96-well plates at a concentration of 5000 cells in 100 μl of complete medium per well. […] After 2 h of incubation at 37° C., the culture medium was aspirated and replaced with 100 μl of complete medium containing decreasing concentrations of poly(I:C) (100 μg/ml, 20 μg/ml, 4 μg/ml, 0.8 μg/ml); the cells were then cultured for 70 h. Each treatment condition was carried out in duplicate. The results are expressed as the relative number of viable cells in relation to the untreated control cultures.
The analysis was carried out using the CellTiter 96° AQueous One Solution Cell Proliferation Assay kit (Promega, Charbonnière, France) according to the manufacturer's instructions. Briefly, 20 μl of MTS was added to the culture medium of each well. The cells were placed in an incubator for 2 h at 37° C. Absorbance at 490 nm was analyzed using a spectrophotometer (Multiskan® EX; Thermo Fisher Scientific). A second measurement at 690 nm was made to exclude nonspecific absorbance. The baseline optical density (blank) represents the average of three wells containing the culture medium alone and was subtracted from the recorded values. Each value represents the average OD of the duplicates. The results are expressed as relative OD values in relation to the untreated control cultures.
The 50% inhibitory concentrations (IC50s), defined as the concentrations necessary to obtain 50% fewer cells than the untreated control after culture, were determined for each molecule used alone or in combination. The IC50s represent the averages of all the experiments performed. To mathematically determine the nature of the interaction between the two molecules, two complementary methods were used: calculation of the combination index (CI) (Chou et al.: Quantitative analysis of dose-effect relationships: the combined effects of multiple drugs or enzyme inhibitors, Adv Enzyme Regul 1984, 22:27-55) and construction of an isobologram (Steel et al.: Exploitable mechanisms in combined radiotherapy-chemotherapy: the concept of additivity, Int J Radiat Oncol Biol Phys 1979, 5:85-91).
The IC50 chemotherapy unit was homogenized to μg/ml. Together, all of these IC50s can be used to calculate combination indexes (CIs), defined by the equation (IC50(chemotherapy/poly(I:C))/IC50(chemotherapy))+(IC50(poly(I:C)/chemotherapy))/IC50(poly(I:C)))+(IC50(chemotherapy/poly(I:C))×IC50(poly(I:C)/chemotherapy))/(IC50(chemotherapy)×IC50(poly(I:C)))), where IC50 (chemotherapy) and IC50(poly(I:C)) respectively represent IC50s of chemotherapy and of poly(I:C) used alone, and IC50(chemotherapy/poly(I:C)) and IC50(poly(I:C)/chemotherapy) respectively represent IC50s of chemotherapy and poly(I:C) used in combination. The average of all the CIs is calculated in order to obtain the average CI that determines the nature of the interaction between the two molecules, according to its value: a CI of 0.1 to 0.9 indicates synergy; a CI of 0.9 to 1.1 indicates additivity; a CI of 1.1 to 10 indicates antagonism.
To build the isobolograms, the abscissa and the ordinate represent the IC50s of poly (I:C) and of the chemotherapeutic agent, respectively. The IC50 of poly(I:C) used alone is plotted on the x-axis and the IC50 of the chemotherapeutic agent used alone is plotted on the y-axis.

NCI-H1703 cells [3] = assay: Annexin V-FITC/propidium iodide labeling, flow cytometry (apoptosis); format: cell-based, human; conditions: for effect of 2 h exposure to agent before poly(I:C) on percentage of apoptotic cells: NCIH-1703, annexin V after 24 h, concentrations at IC50, FIG. 4
Source text: (§1) The duplexes of control small interfering RNA (siRNA; Dharmacon) and siRNA specific for caspase 8 and caspase 9 (Qiagen) used are as follows: 1) control: ON-TARGETplus siCONTROL Non-Targeting siRNA #3; caspase 8 sense 5′-r(GAG UCU GUG CCC AAA UCA A)dTdT-3′, caspase 8 antisense 5′-r(UUG AUU UGG GCA CAG ACU C)dTdT-3′; caspase 9 sense 5′-r(GAG UGG CUC CUG GUA CGU U)dTdT-3′, caspase 9 antisense 5′-r(AAC GUA CCA GGA GCC ACU C)dTdT-3′. The siRNAs were transfected by the HiPerFect (Qiagen) transfection reagent according to the manufacturer's recommendations. Briefly, NCI-H1703 or NCI-H292 cells are cultured in 100 mm dishes, dislodged by trypsin, placed in 24-well plates at a concentration of 50,000 cells in 400 μl of medium per well and incubated at 37° C. during preparation of the mixes. Mixes for each well of a 24-well plate are prepared as follows: the siRNA duplexes are diluted in 100 μl of serum-free and antibiotic-free culture medium, 3 μl of HiPerFect is added, and then the solution is vortexed and incubated for 5-10 min at room temperature. 100 μl of mix is then added drop by drop to the cells and the mixture is homogenized by shaking the plate. The culture medium is changed the following day. The final siRNA concentration is 5 nM and treatment with poly(I:C) begins 72 h after transfection. For these conditions, the effectiveness of caspase 8 and caspase 9 siRNAs in decreasing the level of expression of caspase 8 and caspase 9 proteins, respectively, were measured by western blot, and reaches roughly 85% for caspase 8 siRNA and 75% for caspase 9 siRNA.
In relation to the mechanism of reduction of the number of living cells, the percentage of cells labeled with annexin V after culture after treatment with poly(I:C) was determined by flow cytometry. […] Seventy-two hours after transfection of the control (sictrl), caspase (sicasp8), caspase 9 (sicasp9) or caspase 8+caspase 9 (sicasp8+9) siRNAs, NCI-H1703 cells are treated with 100 μg/ml of poly(I:C) for 24 h or are not treated. The percentage of annexin V-positive cells is measured by flow cytometry. The results presented are the average of three experiments carried out independently. Error Bar, ±SE.
Poly(I:C) induces apoptosis of NSCLC NCIH-1703 and NCIH-292 cell lines. To determine whether the greater reduction in the number of cells alive after treatment with the combination of poly(I:C) and cisplatin or etoposide resulted at least partially from an increase in apoptosis, the cells were labeled with annexin V after 24 h of culture as described in the “Materials and methods” section above.

NCI-H292 cells [4] = assay: as above; format: cell-based, human; conditions: NCIH-292; annexin V after 24 h; concentrations at IC50; FIG. 4
Source text: as §1, with “100 μl of mix is then added drop by drop to the cells and the mixture is homogenized by shaking the plate. The culture medium is changed the following day. The final siRNA concentration is 5 nM and treatment with poly(I:C) begins 72 h after transfection.” left out, “siRNA. […]” for “siRNA.”

NCI-H1703 cells [5] = assay: Viability of cells cultured 24 h with poly(I:C) and wortmannin; format: cell-based, human
Method: Similarly, a study was undertaken to determine the viability of cells of the NCI-H1703 human squamous cell lung cancer cell line cultured for 24 h in the presence of TLR3 ligand (poly(I:C), 100 μg/ml) at various concentrations (0 μM, 0.1 μM and 1.0 μM) of wortmannin, a specific PI3 kinase inhibitor.
In the same way, a study was undertaken to determine the percentage of cells of the NCI-H1703 human squamous cell lung cancer cell line in apoptosis (FACS analysis after labeling with annexin V-FITC/propidium iodide) after culture for 24 h in the presence of TLR3 ligand (poly(I:C), 100 μg/ml) with various concentrations (0 μM, 0.1 μM and 1.0 μM) of specific PI3 kinase inhibitor, wortmannin (WM). […] Moreover, the synergy is strong: with 1 μM wortmannin alone, 6% fewer living cells are observed after 24 h; with 100 μg/ml poly(I:C) alone, 26% fewer living cells are observed after 24 h; when both molecules are used in combination at these same concentrations, however, 71% fewer living cells are observed after 24 h.

TLR3 = assay: Apoptosis induced by TLR3 ligands, with siRNA inhibition of receptors; format: cell-based
Source text: “Specific TLR3 ligand” refers to a ligand that is recognized only by the TLR3 membrane receptor, and not by intracellular receptors such as RIG-I, MDA-5 and PKR. Examples of such a ligand includes the ligand poly(A:U) or specific synthetic double-stranded RNA, in contrast with poly(I:C) whose activity is based not only on its interaction with TLR3 but also by intracellular receptors, whereas poly(A:U) acts specifically on TLR3.

[6] = Homo sapiens, chemotherapeutic agent used alone, 2 h exposure, then 70 h culture, read-out: IC50
[7] = chemotherapeutic agent used alone, 2 h exposure, then 70 h culture, read-out: IC50
[8] = NCI-H292, chemotherapeutic agent used alone, 2 h exposure, then 70 h culture

| IC50 (NCI-H1703 cells [1]; [6]) | IC50 (NCI-H292 cells [2]; Homo sapiens, NCI-H292) | Molecule | CI (combination index) (NCI-H1703 cells [1]) | nature of interaction with poly(I:C), from CI (NCI-H1703 cells [1]) | CI (combination index) (NCI-H292 cells [2]; NCI-H292) | nature of interaction with poly(I:C), from CI (NCI-H292 cells [2]; NCI-H292) | further results |
| --- | --- | --- | --- | --- | --- | --- | --- |
| 3.73 µM | 1.03 µM | COc1cccc2c1C(=O)c1c(O)c3c(c(O)c1C2=O)C[C@@](O)(C(=O)CO)C[C@@H]3O[C@H]1C[C@H](N)[C@H](O)[C@H](C)O1 [Doxorubicin, doxorubicin] | 0.72 ± 0.06 | strong synergy | 0.62 ± 0.08 | strong synergy |  |
| 0.12 µM | 0.21 µM | CC(=O)O[C@H]1C(=O)[C@@]2(C)[C@H]([C@H](OC(=O)c3ccccc3)[C@]3(O)C[C@H](OC(=O)[C@H](O)[C@@H](NC(=O)c4ccccc4)c4ccccc4)C(C)=C1C3(C)C)[C@]1(OC(C)=O)CO[C@@H]1C[C@@H]2O [Paclitaxel, paclitaxel] | 0.83 ± 0.012 | moderate synergy | 0.71 ± 0.0064 | moderate synergy |  |
|  |  | polyinosinic-polycytidylic acid [poly(I:C)] |  |  |  |  | reduction of the number of living cells (NCI-H1703 cells [1]; poly(I:C) 4 μg/ml after pre-incubation for 2 h with 20 μM etoposide): ~70%; reduction of the number of living cells (NCI-H1703 cells [1]; poly(I:C) alone 4 μg/ml): ~35%; IC50 (NCI-H1703 cells [1]; poly(I:C) used alone, 50% fewer cells than untreated control): 19.9 µg/mL; fraction of cells in apoptosis (annexin V-positive) (NCI-H1703 cells [3]; NCI-H1703, 100 μg/ml poly(I:C), 24 h, 11% in control wells, FIG. 2): ⅓; percentage of apoptotic cells (annexin V-positive) (NCI-H1703 cells [3]; NCI-H1703, 100 μg/ml poly(I:C), 24 h, caspase 8 expression inhibited by siRNA): ~20%; effect of suppression of caspase 9 expression on poly(I:C)-induced apoptosis (NCI-H1703 cells [3]; NCI-H1703, 100 μg/ml poly(I:C), 24 h, caspase 9 siRNA): no significant effect; fewer living cells (NCI-H1703 cells [5]; 100 μg/ml poly(I:C) alone): 26%; effect of siRNA inhibition of RIG-I, MDA-5 and PKR expression on poly(I:C) apoptotic activity (TLR3; siRNA against RIG-I, MDA-5, PKR): has no effect; effect of siRNA inhibition of TLR3 or TRIF on poly(I:C)-induced apoptosis (TLR3; siRNA against TLR3 or TRIF): inhibits apoptosis; IC50 (NCI-H292 cells [2]; NCI-H292, poly(I:C) used alone, 50% fewer cells than untreated control): 14.3 µg/mL |
|  | 133 µM | O=c1[nH]cc(F)c(=O)[nH]1 [5-Fluouracile, 5-fluorouracil] |  |  | 0.78 ± 0.09 | moderate synergy |  |
| 0.9 µM | 0.6 µM | Nc1ccn([C@@H]2O[C@H](CO)[C@@H](O)C2(F)F)c(=O)n1 [Gemcitabine, gemcitabine] | 1.0 ± 0.07 | additivity without synergy | 1.3 ± 0.24 | antagonism |  |
|  |  | polyadenylic-polyuridylic acid [poly(A:U)] |  |  |  |  | induction of apoptosis (TLR3; cells sensitive to poly(I:C)): triggers apoptosis |
|  |  | O=C1[O][Pt]2([NH][C@@H]3CCCC[C@H]3[NH]2)[O]C1=O [Oxaliplatin, oxaliplatin] |  | strong synergy |  | strong synergy | IC50 (NCI-H1703 cells [1]; [7]): 170 µM; IC50 (NCI-H292 cells [2]; [8]): 123 µM |
|  |  | N.N.[Cl][Pt][Cl] [Cisplatin, cisplatin] | 0.62 ± 0.03 | strong synergy | 0.50 ± 0.08 | strong synergy | IC50 (NCI-H1703 cells [1]; [7]): 1.1 µM; effect of 2 h exposure to agent before poly(I:C) on percentage of apoptotic cells (NCI-H1703 cells [3]): increases the percentage of apoptotic cells; effect of 2 h exposure to agent before poly(I:C) on percentage of apoptotic cells (NCI-H292 cells [4]): statistically significant only for the NCIH-292 cell line; IC50 (NCI-H292 cells [2]; [8]): 3.4 µM |
|  | 10.6 µM | CC(=O)O[C@@]12CO[C@@H]1C[C@H](O)[C@@]1(C)C(=O)[C@H](O)C3=C(C)[C@@H](OC(=O)[C@H](O)[C@@H](NC(=O)OC(C)(C)C)c4ccccc4)C[C@@](O)([C@@H](OC(=O)c4ccccc4)[C@H]21)C3(C)C [Docetaxel, docetaxel] |  |  | 0.68 ± 0.2 | moderate synergy |  |
|  |  | COC[C@H]1OC(=O)c2coc3c2[C@@]1(C)C1=C(C3=O)[C@@H]2CCC(=O)[C@@]2(C)C[C@H]1OC(C)=O [wortmannin] |  |  |  |  | fewer living cells (NCI-H1703 cells [5]; 1 μM wortmannin + 100 μg/ml poly(I:C) in combination): 71%; fewer living cells (NCI-H1703 cells [5]; 1 μM wortmannin alone): 6% |

| Molecule | IC50 (NCI-H1703 cells [1]; [6]) | IC50 (NCI-H292 cells [2]; Homo sapiens, NCI-H292) | CI (combination index) (NCI-H1703 cells [1]) | nature of interaction with poly(I:C), from CI (NCI-H1703 cells [1]) | CI (combination index) (NCI-H292 cells [2]; NCI-H292) | nature of interaction with poly(I:C), from CI (NCI-H292 cells [2]; NCI-H292) | further results |
| --- | --- | --- | --- | --- | --- | --- | --- |
| COc1cc([C@@H]2c3cc4c(cc3[C@@H](O[C@@H]3O[C@@H]5CO[C@@H](C)O[C@H]5[C@H](O)[C@H]3O)[C@H]3COC(=O)[C@H]23)OCO4)cc(OC)c1O [Etoposide, etoposide] | 32.7 µM | 18.7 µM | 0.59 ± 0.06 | strong synergy | 0.68 ± 0.11 | strong synergy | cytotoxicity at 4 µM (NCI-H1703 cells [1]; Homo sapiens, etoposide 4 μM, then addition of 60 μg/ml poly(I:C)): ~60%; cytotoxicity at 4 µM (NCI-H1703 cells [1]; Homo sapiens, etoposide alone 4 μM): ~25%; effect of 2 h exposure to agent before poly(I:C) on percentage of apoptotic cells (NCI-H1703 cells [3]): significant additive effect; effect of 2 h exposure to agent before poly(I:C) on percentage of apoptotic cells (NCI-H292 cells [4]): significant additive effect; IC50 (NCI-H292 cells [2]; Homo sapiens, NCI-H292, read-out: concentration of etoposide in combination that decreases living cells by 50%): ~8 µM |
